{
  "source": "paper PMC10503797",
  "about": "“Allosteric modulator potentiates β2AR agonist–promoted bronchoprotection in asthma models” (The Journal of Clinical Investigation, 2023)",
  "key": {"guinea pig lung slices": {"tested_on": "guinea pig lung slices", "test": "Methacholine-induced airway constriction in guinea pig lung slices", "assay_type": "cell-based", "conditions": "for MCh-induced airway constriction response (Figure 5D): Exp1-6; for EC50: Cavia porcellus", "protocol": "All curve fits were generated using the software program GraphPad Prism. Data are represented as mean ± SEM obtained from 6 guinea pigs.\n(§1) Precision-cut lung slices were prepared as described previously ([61], [62]). A 3% solution of low melting-point agarose (Gerbu Biotechnik GmbH) in ultrapure water was prepared by heating it a microwave until fully dissolved. […] After filling, the lungs were covered with ice for 30 minutes to solidify the agarose for slicing. […] Lung slices were cut at a thickness of 500 μm and washed several times with slicing buffer to remove debris and washout the isoproterenol. Slices were incubated overnight in a 60 mm dish in sterile incubation buffer: MEM composed of lung slice buffer supplemented with 0.5 mM sodium pyruvate, 1 mM glutamine (Gibco), MEM-amino acids mixture (1:50), MEM-vitamins mixture (1:100; Gibco), and penicillin-streptomycin (1:100; Gibco), pH = 7.2, at 37°C in a CO2- and humidity-controlled atmosphere.\n(§2) After washing the slices in medium, individual guinea pig lung slices were mechanically maintained with a Teflon ring with an inner diameter of 7 mm and covered with 1 mL of incubation buffer. […] Image acquisition software (NIS-Elements, Nikon) was used to quantify airway luminal area. Images of the airways were acquired every 2 seconds during the whole course of the experiment, starting 2 minutes before the addition of any agent to allow for baseline measurements of the airway caliber. For each methacholine or ovalbumin concentration, the maximal airway constriction was expressed as percentage of the initial (baseline) airway luminal area and plotted against that concentration."}, "[1]": {"tested_on": "lung slices obtained from ovalbumin-sensitized guinea pigs", "test": "Ovalbumin-induced airway constriction in lung slices from ovalbumin-sensitized guinea pigs", "assay_type": "cell-based, guinea pig", "conditions": "Exp1-5", "from_the_text": "All curve fits were generated using the software program GraphPad Prism. Data are represented as mean ± SEM of 4–5 guinea pigs (see Table 2 for statistical analyses).\nOutbred, male, specified pathogen-free Dunkin Hartley guinea pigs (Charles River Laboratory) weighing 200 to 400 g were used. The animals were housed in pairs under a 12-hour light/dark cycle in a temperature- and humidity-controlled room with food and tap water ad libitum. For studies in the guinea pig model of allergic asthma, animals were actively IgE-sensitized to ovalbumin by injecting a suspension containing 100 μg/mL ovalbumin and 100 mg/mL Al(OH)3 in saline. Each animal was injected with 1.0 mL of suspension: 0.5 mL was injected i.p. and 0.5 mL was divided over 7 s.c. sites close to lymph nodes in the neck, paws, and lumbar regions ([24]). Animals were euthanized at least 4 weeks after sensitization.\nas §1, §2"}, "[2]": {"conditions": "10 µM Fenoterol, -Log [MCh] 6.5"}, "[3]": {"conditions": "10 µM Fenoterol, -Log [MCh] 7.5"}},
  "note": "Several values for one entry are separate records, joined by “and”; a condition that tells them apart may be missing. Equal entries are not always repeated. Where two headings read alike, the source gives them in different places.",
  "data": [
    {"smiles": "CC(Cc1ccc(O)cc1)NCC(O)c1cc(O)cc(O)c1", "note": "(centres unmarked) [Fenoterol, fenoterol]", "values": [
      {"measurement": "airway area in MCh concentration-response (Figure 5A/5C)", "setting": "guinea pig lung slices; 1 µM Fenoterol, -Log [MCh] 2.5", "value": 0.0},
      {"measurement": "airway area in MCh concentration-response (Figure 5A/5C)", "setting": "guinea pig lung slices; 1 µM Fenoterol, -Log [MCh] 3", "value": 0.0},
      {"measurement": "airway area in MCh concentration-response (Figure 5A/5C)", "setting": "guinea pig lung slices; 1 µM Fenoterol, -Log [MCh] 3.5", "value": 0.0},
      {"measurement": "airway area in MCh concentration-response (Figure 5A/5C)", "setting": "guinea pig lung slices; 1 µM Fenoterol, -Log [MCh] 4", "value": 0.0},
      {"measurement": "airway area in MCh concentration-response (Figure 5A/5C)", "setting": "guinea pig lung slices; 1 µM Fenoterol, -Log [MCh] 4.5", "value": 0.0},
      {"measurement": "airway area in MCh concentration-response (Figure 5A/5C)", "setting": "guinea pig lung slices; 1 µM Fenoterol, -Log [MCh] 7", "value": "100.3 and 103.0 and 66.3 and 92.9 and 96.6"},
      {"measurement": "airway area in MCh concentration-response (Figure 5A/5C)", "setting": "guinea pig lung slices; 1 µM Fenoterol, -Log [MCh] 7.5", "value": "101.4 and 100.4 and 106.4 and 96.3"},
      {"measurement": "airway area in MCh concentration-response (Figure 5A/5C)", "setting": "guinea pig lung slices; 1 µM Fenoterol, -Log [MCh] 8", "value": "99.1 and 105.8 and 109.5 and 112.9"},
      {"measurement": "airway area in MCh concentration-response (Figure 5A/5C)", "setting": "guinea pig lung slices; [2]", "value": "59.0 and 89.4 and 82.6 and 83.1 and 91.0 and 74.6"},
      {"measurement": "MCh-induced airway constriction response (Figure 5D)", "setting": "guinea pig lung slices; [2]", "value": "59.0 and 89.4 and 82.6 and 83.1 and 91.0 and 74.6"},
      {"measurement": "airway area in MCh concentration-response (Figure 5A/5C)", "setting": "guinea pig lung slices; 10 µM Fenoterol, -Log [MCh] 7", "value": "77.1 and 109.6 and 109.2 and 101.3 and 91.9"},
      {"measurement": "MCh-induced airway constriction response (Figure 5D)", "setting": "guinea pig lung slices; 10 µM Fenoterol, -Log [MCh] 7", "value": "77.1 and 109.6 and 109.2 and 101.3 and 91.9"},
      {"measurement": "airway area in MCh concentration-response (Figure 5A/5C)", "setting": "guinea pig lung slices; [3]", "value": "94.2 and 110.7 and 102.7 and 105.1"},
      {"measurement": "MCh-induced airway constriction response (Figure 5D)", "setting": "guinea pig lung slices; [3]", "value": "94.2 and 110.7 and 102.7 and 105.1"},
      {"measurement": "airway area in MCh concentration-response (Figure 5A/5C)", "setting": "guinea pig lung slices; 10 µM Fenoterol, -Log [MCh] 8", "value": "106.3 and 110.5 and 104.8"},
      {"measurement": "MCh-induced airway constriction response (Figure 5D)", "setting": "guinea pig lung slices; 10 µM Fenoterol, -Log [MCh] 8", "value": "106.3 and 110.5 and 104.8"},
      {"measurement": "MCh-induced airway constriction response (Figure 5D)", "setting": "guinea pig lung slices; 100 µM Fenoterol, -Log [MCh] 6.5", "value": "82.5 and 88.6 and 98.9 and 92.2 and 82.0"},
      {"measurement": "MCh-induced airway constriction response (Figure 5D)", "setting": "guinea pig lung slices; 100 µM Fenoterol, -Log [MCh] 7", "value": "98.1 and 101.4 and 98.8 and 109.0 and 104.9"},
      {"measurement": "MCh-induced airway constriction response (Figure 5D)", "setting": "guinea pig lung slices; 100 µM Fenoterol, -Log [MCh] 7.5", "value": "106.4 and 100.0 and 110.6 and 99.9"},
      {"measurement": "MCh-induced airway constriction response (Figure 5D)", "setting": "guinea pig lung slices; 100 µM Fenoterol, -Log [MCh] 8", "value": "101.0 and 105.4 and 99.3 and 99.7"},
      {"measurement": "EC50", "setting": "guinea pig lung slices; read-out: MCh EC50, 1 μM Fenoterol", "value": "370 ± 80", "unit": "nM"},
      {"measurement": "EC50", "setting": "guinea pig lung slices; read-out: MCh EC50, 10 μM Fenoterol", "value": "560 ± 30", "unit": "nM"},
      {"measurement": "EC50", "setting": "guinea pig lung slices; read-out: MCh EC50, 100 μM Fenoterol", "value": "1000 ± 150", "unit": "nM"},
      {"measurement": "OVA-induced airway constriction response (Figure 6)", "setting": "[1]; 0.1 µM Fenoterol, [OVA] 0.001 ng/ml", "value": "100.0 and 98.0 and 100.9"},
      {"measurement": "OVA-induced airway constriction response (Figure 6)", "setting": "[1]; 0.1 µM Fenoterol, [OVA] 0.01 ng/ml", "value": "100.0 and 105.5 and 96.2 and 100.8"},
      {"measurement": "OVA-induced airway constriction response (Figure 6)", "setting": "[1]; 0.1 µM Fenoterol, [OVA] 0.1 ng/ml", "value": "100 and 99.0"},
      {"measurement": "OVA-induced airway constriction response (Figure 6)", "setting": "[1]; 0.1 µM Fenoterol, [OVA] 1 ng/ml", "value": "100.0 and 109.4 and 99.5 and 95.4"},
      {"measurement": "OVA-induced airway constriction response (Figure 6)", "setting": "[1]; 0.1 µM Fenoterol, [OVA] 10 ng/ml", "value": "109.1 and 98.9 and 69.5"},
      {"measurement": "OVA-induced airway constriction response (Figure 6)", "setting": "[1]; 0.1 µM Fenoterol, [OVA] 100000 ng/ml", "value": 0.0},
      {"measurement": "OVA-induced airway constriction response (Figure 6)", "setting": "[1]; 0.1 µM Fenoterol, [OVA] 1000000 ng/ml", "value": 0.0},
      {"measurement": "OVA-induced airway constriction response (Figure 6)", "setting": "[1]; 1 µM Fenoterol, [OVA] 0.001 ng/ml", "value": "103.2 and 100 and 98.0"},
      {"measurement": "OVA-induced airway constriction response (Figure 6)", "setting": "[1]; 1 µM Fenoterol, [OVA] 0.01 ng/ml", "value": "103.0 and 100.0 and 95.8"},
      {"measurement": "OVA-induced airway constriction response (Figure 6)", "setting": "[1]; 1 µM Fenoterol, [OVA] 0.1 ng/ml", "value": "97.3 and 96.9 and 98.7 and 100"},
      {"measurement": "OVA-induced airway constriction response (Figure 6)", "setting": "[1]; 1 µM Fenoterol, [OVA] 1 ng/ml", "value": "103.2 and 98.4 and 95.2 and 100.1 and 99.5"},
      {"measurement": "OVA-induced airway constriction response (Figure 6)", "setting": "[1]; 1 µM Fenoterol, [OVA] 10 ng/ml", "value": "101.0 and 98.4 and 92.9 and 100.7 and 99.7"},
      {"measurement": "OVA-induced airway constriction response (Figure 6)", "setting": "[1]; 1 µM Fenoterol, [OVA] 100 ng/ml", "value": "98.8 and 99.1 and 98.3 and 105.5 and 98.7"},
      {"measurement": "OVA-induced airway constriction response (Figure 6)", "setting": "[1]; 1 µM Fenoterol, [OVA] 1000 ng/ml", "value": "95.3 and 96.8 and 97.2 and 98.0"},
      {"measurement": "OVA-induced airway constriction response (Figure 6)", "setting": "[1]; 1 µM Fenoterol, [OVA] 10000 ng/ml", "value": "91.4 and 95.6 and 97.2 and 105.0 and 93.6"}
    ]}
  ]
}
